{
  "source": "patent US20160296529A1",
  "about": "“AMINOTRIAZOLOPYRIDINE FOR USE IN THE TREATMENT OF INFLAMMATION, AND PHARMACEUTICAL COMPOSITIONS THEREOF” (priority 2012, published 2016)",
  "key": {"rat CIA model": {"test_system": "rat CIA model", "assay": "CIA model 1 (rat collagen induced arthritis, clinical score)", "format": "in vivo, Dark Agouti rats", "design": "key to Rat CIA Clinical Score: sum of 4 paws, each 0 = no symptoms to 4 = maximal; max 16", "conditions": "for Rat CIA Clinical Score: Formula II 6 mg/kg", "experimental": "Complete Freund's adjuvant (CFA) and Incomplete Freund's adjuvant (IFA) were purchased from Difco. Bovine collagen type II (CII), lipopolysaccharide (LPS), and Enbrel® was obtained from Chondrex (Isle d'Abeau, France); Sigma (P4252, L'Isle d'Abeau, France), Whyett (25 mg injectable syringe, France), Acros Organics (Palo Alto, Calif.), respectively. All other reagents used were of reagent grade and all solvents were of analytical grade.\nDark Agouti rats (male, 7-8 weeks old) were obtained from Harlan Laboratories (Melderslo, Netherlands). Rats were kept on a 12 hr light/dark cycle (0700-1900). Temperature was maintained at 22° C., and food and water were provided ad libitum.\nOne day before the experiment, CII solution (2 mg/mL) was prepared with 0.05 M acetic acid and stored at 4° C. Just before the immunization, equal volumes of adjuvant (IFA) and CII were mixed by a homogenizer in a pre-cooled glass bottle in an ice water bath. Extra adjuvant and prolonged homogenization may be required if an emulsion was not formed. 0.2 mL of the emulsion was injected intradermally at the base of the tail of each rat on day 1, a second booster intradermal injection (CII solution at 2 mg/mL in CFA 0.1 mL saline) was performed on day 9. This immunization method was modified from published methods (Sims et al, 2004; Jou et al., 2005).\nThe therapeutic effects of the compounds were tested in the rat CIA model. Rats were randomly divided into equal groups and each group contained 10 rats. All rats were immunized on day 1 and boosted on day 9. Therapeutic dosing lasts from day 16 to day 30. The negative control group was treated with vehicle (MC 0.5%) and the positive control group with Enbrel® (10 mg/kg, 3× week., s.c.). A compound of interest was typically tested at 3 doses, e.g. 6, 10, 60 mg/kg, q.d., p.o.\nArthritis was scored according to the method of Khachigian 2006, Lin et al 2007 and Nishida et al. 2004). The swelling of each of the four paws was ranked with the arthritic score as follows: 0—no symptoms; 1—mild, but definite redness and swelling of one type of joint such as the ankle or wrist, or apparent redness and swelling limited to individual digits, regardless of the number of affected digits; 2—moderate redness and swelling of two or more types of joints; 3—severe redness and swelling of the entire paw including digits; 4—maximally inflamed limb with involvement of multiple joints (maximum cumulative clinical arthritis score 16 per animal) (Nishida et al., 2004).\nTo permit the meta-analysis of multiple studies the clinical score values were normalised as follows:\nAUC of clinical score (AUC score): The area under the curve (AUC) from day 1 to day 14 was calculated for each individual rat. The AUC of each animal was divided by the average AUC obtained for the vehicle in the study from which the data on that animal was obtained and multiplied by 100 (i.e. the AUC was expressed as a percentage of the average vehicle AUC per study).\nClinical score increase from day 1 to day 14 (End point score): The clinical score difference for each animal was divided by the average clinical score difference obtained for the vehicle in the study from which the data on that animal was obtained and multiplied by 100 (i.e. the difference was expressed as a percentage of the average clinical score difference for the vehicle per study)."}, "hepatocytes of mouse": {"test_system": "hepatocytes of mouse", "assay": "In vitro metabolism study in hepatocytes, mouse", "format": "in vitro ADME", "conditions": "mouse hepatocyte suspension, 24 h incubation of 100 μM [14C]-Formula II", "experimental": "Hepatocyte stability (Concentrations of the compound according to Formula II and its main metabolites (as % of total radioactivity) after 24 h incubation of 100 μM [^14C]-Compound according to Formula II in hepatocyte suspension of different species)"}, "[1]": {"assay": "Single dose pharmacokinetics in animals, mouse", "format": "in vivo, CD1 mice", "conditions": "male, CD1, plasma, after Formula II 30 mg/kg oral, read-out: exposure (expressed as AUC)", "experimental": "Pharmacokinetic studies were performed in various animal species dosed with the compound according to Formula II to determine the exposure to the compound according to Formula I as well as its apparent terminal half life (T1/2), when possible.\nSprague-Dawley rats (male, 200-250 g), CD1 mice (male, 25-30 g), Beagle dogs (male, 9-10 kg), Göttingen minipigs (male, 10-15 kg) and New Zealand White rabbits (male, 3-5 kg) were acclimatized for at least 7 days before treatment and were kept on a 12 hr light/dark cycle (07 h00-19 h00).\nTemperature was maintained at approximately 22° C., and food and water were provided ad libitum.\nThe compound according to Formula II was formulated in 0.5% methylcellulose and dosed orally to 3 animals (or 3 mouse/time points) as a single esophageal gavage at dose ranging from 15 to 45 mg/kg under a dosing volume of 5 or 10 mL/kg.\nBlood samples were collected over a 24-h period via the jugular vein (dog, minipig), ear blood vessel (rabbit), cardiac puncture (mouse) or retro-orbital sinus (rat) with lithium heparin as anti-coagulant. Whole blood samples were centrifuged and the resulting plasma samples were stored at −20° C. pending analysis.\nPlasma concentrations of the compound according to Formula I and of the compound according to Formula II were determined by an LC-MS/MS method with a limit of quantification ≦10.0 ng/mL for both Formula I and Formula II for all species.\nPharmacokinetic parameters were calculated using a statistical analysis package (WinNonLin (Pharsight, Sunnyvale, Calif.: CA 94086, USA)."}, "[2]": {"assay": "Target inhibition: circulating levels in healthy volunteers as multiples of whole blood assay IC50", "format": "in vivo, human", "experimental": "The compound according to Formula II was dosed daily in healthy volunteers at 200 mg QD and 100 mg BID.\nThe resulting levels of Formula II and Formula I were then measured and plotted (FIG. 5) as multiples of their respective IC50 as determined by the Whole Blood assay described above in Example 3.4."}},
  "data": [
    {"smiles": "O=C(Nc1nc2cccc(-c3ccc(CN4CCS(=O)(=O)CC4)cc3)n2n1)C1CC1", "note": "[Formula II, Cyclopropanecarboxylic acid {5-[4-(1,1-dioxo-thiomorpholin-4-ylmethyl)-phenyl]-[1,2,4]triazolo[1,5-a]pyridin-2-yl}-amide]", "values": [
      {"measurement": "Rat CIA Clinical Score", "setting": "rat CIA model; day 18", "value": 3.0},
      {"measurement": "Rat CIA Clinical Score", "setting": "rat CIA model; day 19", "value": 3.6},
      {"measurement": "Rat CIA Clinical Score", "setting": "rat CIA model; day 20", "value": 4.2},
      {"measurement": "Rat CIA Clinical Score", "setting": "rat CIA model; day 21", "value": 5.1},
      {"measurement": "Rat CIA Clinical Score", "setting": "rat CIA model; day 24", "value": 5.2},
      {"measurement": "Rat CIA Clinical Score", "setting": "rat CIA model; day 25", "value": 5.1},
      {"measurement": "Rat CIA Clinical Score", "setting": "rat CIA model; day 26", "value": 4.9},
      {"measurement": "Rat CIA Clinical Score", "setting": "rat CIA model; day 27", "value": 5.2},
      {"measurement": "Rat CIA Clinical Score", "setting": "rat CIA model; day 28", "value": 5.4},
      {"measurement": "activity in the CIA rat model", "setting": "rat CIA model; dosed alone", "value": "active"},
      {"measurement": "In vitro metabolic profile of Formula II (as % of total radioactivity)", "setting": "hepatocytes of mouse", "value": "at least 80%"},
      {"measurement": "In vitro metabolic profile of Formula II (as % of total radioactivity)", "setting": "hepatocytes of mouse; listed as drawing 10", "value": 85, "unit": "%"},
      {"measurement": "AUC", "setting": "[1]", "value": 7300, "unit": "ng·h/mL"},
      {"measurement": "Ratio [blood circulating dose]/[circulating dose at IC50 quantity]", "setting": "[2]; Formula II at 100 mg BID, time point 0 h", "value": 0.09},
      {"measurement": "Ratio [blood circulating dose]/[circulating dose at IC50 quantity]", "setting": "[2]; Formula II at 100 mg BID, time point 0.5 h", "value": 0.12},
      {"measurement": "Ratio [blood circulating dose]/[circulating dose at IC50 quantity]", "setting": "[2]; Formula II at 100 mg BID, time point 1 h", "value": 0.48},
      {"measurement": "Ratio [blood circulating dose]/[circulating dose at IC50 quantity]", "setting": "[2]; Formula II at 100 mg BID, time point 2 h", "value": 1.28},
      {"measurement": "Ratio [blood circulating dose]/[circulating dose at IC50 quantity]", "setting": "[2]; Formula II at 100 mg BID, time point 3 h", "value": 1.71},
      {"measurement": "Ratio [blood circulating dose]/[circulating dose at IC50 quantity]", "setting": "[2]; Formula II at 100 mg BID, time point 5 h", "value": 0.88},
      {"measurement": "Ratio [blood circulating dose]/[circulating dose at IC50 quantity]", "setting": "[2]; Formula II at 100 mg BID, time point 8 h", "value": 0.26},
      {"measurement": "Ratio [blood circulating dose]/[circulating dose at IC50 quantity]", "setting": "[2]; Formula II at 100 mg BID, time point 12 h", "value": 0.09},
      {"measurement": "Ratio [blood circulating dose]/[circulating dose at IC50 quantity]", "setting": "[2]; Formula II at 100 mg BID, time point 12.5 h", "value": 0.12},
      {"measurement": "Ratio [blood circulating dose]/[circulating dose at IC50 quantity]", "setting": "[2]; Formula II at 100 mg BID, time point 13 h", "value": 0.48},
      {"measurement": "Ratio [blood circulating dose]/[circulating dose at IC50 quantity]", "setting": "[2]; Formula II at 100 mg BID, time point 14 h", "value": 1.28},
      {"measurement": "Ratio [blood circulating dose]/[circulating dose at IC50 quantity]", "setting": "[2]; Formula II at 100 mg BID, time point 15 h", "value": 1.71},
      {"measurement": "Ratio [blood circulating dose]/[circulating dose at IC50 quantity]", "setting": "[2]; Formula II at 100 mg BID, time point 17 h", "value": 0.88},
      {"measurement": "Ratio [blood circulating dose]/[circulating dose at IC50 quantity]", "setting": "[2]; Formula II at 100 mg BID, time point 20 h", "value": 0.26},
      {"measurement": "Ratio [blood circulating dose]/[circulating dose at IC50 quantity]", "setting": "[2]; Formula II at 100 mg BID, time point 24 h", "value": 0.09},
      {"measurement": "Ratio [blood circulating dose]/[circulating dose at IC50 quantity]", "setting": "[2]; Formula II at 200 mg QD, time point 0 h", "value": 0.02},
      {"measurement": "Ratio [blood circulating dose]/[circulating dose at IC50 quantity]", "setting": "[2]; Formula II at 200 mg QD, time point 0.5 h", "value": 0.46},
      {"measurement": "Ratio [blood circulating dose]/[circulating dose at IC50 quantity]", "setting": "[2]; Formula II at 200 mg QD, time point 1 h", "value": 3.14},
      {"measurement": "Ratio [blood circulating dose]/[circulating dose at IC50 quantity]", "setting": "[2]; Formula II at 200 mg QD, time point 2 h", "value": 3.88},
      {"measurement": "Ratio [blood circulating dose]/[circulating dose at IC50 quantity]", "setting": "[2]; Formula II at 200 mg QD, time point 3 h", "value": 3.16},
      {"measurement": "Ratio [blood circulating dose]/[circulating dose at IC50 quantity]", "setting": "[2]; Formula II at 200 mg QD, time point 5 h", "value": 1.31},
      {"measurement": "Ratio [blood circulating dose]/[circulating dose at IC50 quantity]", "setting": "[2]; Formula II at 200 mg QD, time point 8 h", "value": 0.36},
      {"measurement": "Ratio [blood circulating dose]/[circulating dose at IC50 quantity]", "setting": "[2]; Formula II at 200 mg QD, time point 24 h", "value": 0.11}
    ]}
  ]
}
